After the bases stand the sugars from the 5' end (letter, count) and the backbone: PS all phosphorothioate, else s phosphorothioate and o phosphodiester by linkage. Methylation of C is not given here. e = 2'-O-(2-methoxyethyl) (MOE); k = constrained ethyl (cEt); d = 2'-deoxy (DNA); m = 2'-O-methyl
Target: HSD17B13
Conditions: ASO, HepaRG

Sequence	target mRNA inhibition (1 µM)	further results
ATACTTACCAATATGG (sugars k3 d10 k3, PS)	0%	–
ATCTTATAAGACTATA (sugars k3 d10 k3, PS)	32%	–
TGACAATGGTTGCCAC (sugars k3 d10 k3, PS)	40%	–
TCATAGTTCAAATTGG (sugars k3 d10 k3, PS)	47%	–
ATCTATCAGACTTCTT (sugars k3 d9 k3 e1, PS)	51%	–
ACTTGATCTCTTAGCT (sugars k3 d10 k3, PS)	59%	–
ATTGAGATGACAGTGG (sugars k3 d10 k3, PS)	70%	target mRNA inhibition (0.02 µM): 21%; target mRNA inhibition (0.078 µM): 40%; target mRNA inhibition (0.313 µM): 64%; target mRNA inhibition (1.25 µM): 77%; target mRNA inhibition (5 µM): 91%
ATGAGAACAATCTCCC (sugars k3 d10 k3, PS)	65%	target mRNA inhibition (0.02 µM): 0%; target mRNA inhibition (0.078 µM): 9%; target mRNA inhibition (0.313 µM): 40%; target mRNA inhibition (1.25 µM): 64%; target mRNA inhibition (5 µM): 78%
CTATATACATCCAAGT (sugars k3 d10 k3, PS)	6%	–
CTAGGGAGGAGGTACT (sugars k3 d10 k3, PS)	29%	–
TGGAAACATGCTTGGC (sugars k3 d10 k3, PS)	62%	–
ATCAAGACATTCTAGC (sugars k3 d9 k3 e1, PS)	52%	–
GAACCAATATGCTCTG (sugars k3 d10 k3, PS)	61%	–
ACATCTCTGGGACCAA (sugars k3 d1 m1 d8 k3, PS)	68%	–
AGGTAAGGAATCCCTT (sugars k3 d10 k3, PS)	0%	–
CCCTTAGGAAAGCTCA (sugars k3 d10 k3, PS)	37%	–
TGAGAGTATAAATGGC (sugars k3 d10 k3, PS)	67%	–
AGAGCATAAGTTACCA (sugars k3 d10 k3, PS)	88%	target mRNA inhibition (0.02 µM): 4%; target mRNA inhibition (0.078 µM): 11%; target mRNA inhibition (0.313 µM): 50%; target mRNA inhibition (1.25 µM): 78%; target mRNA inhibition (5 µM): 79%
GCTGAAACTGCTGATT (sugars k3 d10 k3, PS)	38%	–
AGAGAGTAATCAGTTT (sugars k3 d9 k3 e1, PS)	51%	–
TGACTGCTGCTAGTGC (sugars k3 d10 k3, PS)	50%	–
TCTATAGCTAAGTATA (sugars k3 d10 k3, PS)	0%	–
GTTAGCAAAACACTTG (sugars k3 d10 k3, PS)	71%	target mRNA inhibition (0.02 µM): 1%; target mRNA inhibition (0.078 µM): 15%; target mRNA inhibition (0.313 µM): 44%; target mRNA inhibition (1.25 µM): 68%; target mRNA inhibition (5 µM): 81%

Sequence	target mRNA inhibition (1 µM)	further results
GATTAGTCTTGATGTA (sugars k3 d1 m1 d8 k3, PS)	45%	–
GCCAACACTAATCTCA (sugars k3 d10 k3, PS)	40%	–
GACAGGTAATTAATCT (sugars k3 d10 k3, PS)	60%	–
AGAGAGTAATCAGTTT (sugars k3 d10 k3, PS)	39%	–
TCTGGGACCAAGGATA (sugars k3 d10 k3, PS)	30%	–
ATAAGGCCGATTCATG (sugars k3 d10 k3, PS)	38%	–
ATCTTATAAGACTATA (sugars k3 d9 k3 e1, PS)	53%	–
CCTCCTTATTTGTTAG (sugars k3 d10 k3, PS)	41%	–
CTTAATTTTCGGGTTC (sugars k3 d10 k3, PS)	37%	–
CCCAACCCAAGCTACC (sugars k3 d10 k3, PS)	22%	–
TTTGGTGGACTTCAGA (sugars k3 d10 k3, PS)	16%	–
TATAGTTATCTTCTCA (sugars k3 d1 m1 d8 k3, PS)	33%	–
GACTAATGCAAGATTT (sugars k3 d10 k3, PS)	55%	–
GTTTACAAGTAAGAAC (sugars k3 d10 k3, PS)	42%	–
ACTTGAACAGTCTTAA (sugars kkdddddddddkekek, PS)	60%	–
GCATTAATGCCACCCT (sugars k3 d10 k3, PS)	36%	–
CAATGGTTGATAGTTT (sugars k3 d10 k3, PS)	47%	–
GTATCTTATAAGACTA (sugars kkdddddddddkekek, PS)	61%	–
CATATCCAGTAGGTGT (sugars k3 d10 k3, PS)	37%	–
ACATTAGCAAGCTAAG (sugars kkdddddddddkekek, PS)	23%	–
GTTTAGAAGTCAAACG (sugars k3 d10 k3, PS)	0%	–
AATTATACTTTTCCGT (sugars k3 d10 k3, PS)	66%	–
GCTGCTATTTAGGGCA (sugars k3 d10 k3, PS)	53%	–

Sequence	target mRNA inhibition (1 µM)	further results
TGTTAGCTAAGGGAGA (sugars k3 d10 k3, PS)	0%	–
CAGCATCAAGACATTC (sugars k3 d1 m1 d8 k3, PS)	52%	–
GTTCTGATGTCAGACC (sugars k3 d10 k3, PS)	55%	–
ACAGATTGGAATGCTA (sugars kkdddddddddkekek, PS)	49%	–
AGCCTTAGAGTGAATC (sugars k3 d10 k3, PS)	74%	target mRNA inhibition (0.02 µM): 35%; target mRNA inhibition (0.078 µM): 54%; target mRNA inhibition (0.313 µM): 84%; target mRNA inhibition (1.25 µM): 94%; target mRNA inhibition (5 µM): 89%
AGTAAATGATGGCAGG (sugars k3 d10 k3, PS)	40%	–
GATACTGGTGGACAAG (sugars k3 d10 k3, PS)	13%	–
GAATCCATTCTATGCA (sugars k3 d10 k3, PS)	47%	–
CATAUGTGAAGAGCTG (sugars k3 d1 m1 d8 k3, PS)	39%	–
GCTGAGAGTTCTACAC (sugars k3 d10 k3, PS)	45%	–
GAGTTATACAGAAGAC (sugars k3 d10 k3, PS)	61%	–
ACTTGAACAGTCTTAA (sugars k3 d1 m1 d8 k3, PS)	29%	–
CATCTAACTAACCTGA (sugars k3 d10 k3, PS)	0%	–
AGTCGGTCACCTTTCA (sugars k3 d9 k3 e1, PS)	75%	target mRNA inhibition (0.02 µM): 1%; target mRNA inhibition (0.078 µM): 17%; target mRNA inhibition (0.313 µM): 37%; target mRNA inhibition (1.25 µM): 66%; target mRNA inhibition (5 µM): 62%
TAGGCAGTAAAGTGCT (sugars k3 d10 k3, PS)	48%	–
GGCAAGGATACCTGAA (sugars k3 d10 k3, PS)	67%	–
TCATTTAGCAGCTTGG (sugars k3 d10 k3, PS)	79%	target mRNA inhibition (0.02 µM): 12%; target mRNA inhibition (0.078 µM): 31%; target mRNA inhibition (0.313 µM): 43%; target mRNA inhibition (1.25 µM): 87%; target mRNA inhibition (5 µM): 84%
GTTAGTATAGTTATCT (sugars k3 d10 k3, PS)	66%	target mRNA inhibition (0.02 µM): 0%; target mRNA inhibition (0.078 µM): 17%; target mRNA inhibition (0.313 µM): 40%; target mRNA inhibition (1.25 µM): 74%; target mRNA inhibition (5 µM): 86%
CCACTTTTGGTGGACT (sugars k3 d10 k3, PS)	17%	–
GGCACTCAGCTGCAGT (sugars k3 d10 k3, PS)	49%	–
GAGGTAAGGAATCCCT (sugars k3 d10 k3, PS)	27%	–
TGAAATCTTGTGTAAC (sugars k3 d10 k3, PS)	43%	–
TGGGACCAAGGATATA (sugars k3 d1 m1 d8 k3, PS)	51%	–

Sequence	target mRNA inhibition (1 µM)	further results
ATGTAAAGTTTGTTAG (sugars k3 d10 k3, PS)	12%	–
GAATATATACTAGGAT (sugars k3 d10 k3, PS)	5%	–
TTAAACCTTCCCTGTG (sugars k3 d10 k3, PS)	22%	–
AGTGCTTAGTTCATTG (sugars k3 d10 k3, PS)	84%	target mRNA inhibition (0.02 µM): 0%; target mRNA inhibition (0.078 µM): 0%; target mRNA inhibition (0.313 µM): 31%; target mRNA inhibition (1.25 µM): 58%; target mRNA inhibition (5 µM): 84%
TTAAAATAGAGTCGGT (sugars k3 d10 k3, PS)	65%	–
TTATACTGAAGGCTGT (sugars k3 d10 k3, PS)	23%	–
GCTTTAGCTTAAACTC (sugars k3 d10 k3, PS)	72%	–
GCATTCATCAGATGTT (sugars k3 d10 k3, PS)	89%	target mRNA inhibition (0.02 µM): 3%; target mRNA inhibition (0.078 µM): 24%; target mRNA inhibition (0.313 µM): 66%; target mRNA inhibition (1.25 µM): 86%; target mRNA inhibition (5 µM): 91%
GTCCAAAAGTGTCCTC (sugars k3 d10 k3, PS)	35%	–
CACCTGATTTAGAGAG (sugars k3 d10 k3, PS)	11%	–
AAGTAGGAGTAGATGA (sugars k3 d10 k3, PS)	0%	–
CTGTGGCATGGCTACA (sugars k3 d10 k3, PS)	66%	–
ATCTACATGGATCCAA (sugars k3 d10 k3, PS)	12%	–
TGTAAAGTTTGTTAGA (sugars k3 d10 k3, PS)	35%	–
TGTCATAAAGGTGGGA (sugars k3 d10 k3, PS)	48%	–
TCCAGAATAGAGTTGC (sugars k3 d10 k3, PS)	46%	–
TGCAAAGTTAATAGGA (sugars k3 d10 k3, PS)	43%	–
AATTATGCCTTGTGGC (sugars k3 d10 k3, PS)	19%	–
TTCTAGGATGATGTTC (sugars k3 d10 k3, PS)	72%	–
TAATTTTTGAGCCTAA (sugars k3 d10 k3, PS)	41%	–
ACTTGAACAGTCTTAA (sugars k3 d9 k3 e1, PS)	60%	–
GCCTAAACATTTCTCA (sugars k3 d10 k3, PS)	2%	–

Reference: the OligoGym collection
